The text below walks through data of PubChem BioAssay (NCI).

Molecules are shown by their SMILES.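 Dose response: 5 concentrations. Exposure: 48 h. Format: 96-well plates. Endpoint: linear interpolation; highest concentration if not reached. GI50 = concentration required for 50% inhibition of growth. TGI denotes the concentration required for complete inhibition of growth.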 Where a SMILES comes first, the peptide text is derived from it. [ ]: non-standard residue; d: D form. The star is where a group is joined. ξ: configuration not given here. ξW = NC(Cc1c[nH]c2ccccc12)C(=O)O; X30 = O=C(O)[C@H]1CCC[C@H]1N*; ξF = NC(Cc1ccccc1)C(=O)O; Boc = CC(C)(C)OC(=O)*; ξK = NCCCCC(N)C(=O)O; ξT = CC(O)C(N)C(=O)O; tBu = CC(C)(C)*

Some test systems named below: CCRF-CEM leukemia; MALME-3M melanoma; SF-295 CNS; UACC-257 melanoma; MDA-MB-231 breast; PC-3 prostate; DU-145 prostate; BT-549 breast; MDA-MB-435; HS 578T breast.
Assay in all cases: inhibition of tumour cell growth, NCI panel, 48 h

For the molecule `Clc1ccc2c(Cl)nc(-c3ccccc3)nc2c1`, the TGI in the test with CCRF-CEM leukemia was over 100 µM; with MALME-3M melanoma, over 100 µM; in the test on SF-295 CNS, 90.3 µM; with UACC-257 melanoma, over 100 µM.
Turning to `NN/C(=N\S(=O)(=O)c1cccc2nsnc12)Nc1ccc(Cl)cc1`, the TGI with CCRF-CEM leukemia, with SF-295 CNS, with MDA-MB-231 breast, in the test with PC-3 prostate, in the test with DU-145 prostate and with UACC-257 melanoma was over 100 µM each time. The same molecule yielded a TGI in the test on BT-549 breast of over 100 µM.
Consider `Cc1cc(=O)[nH]c(NN2C(Cl)C(=O)C2c2c(O)ccc3ccccc23)n1` (stereo not given), for which the TGI in the test on CCRF-CEM leukemia and in the test with UACC-257 melanoma was over 100 µM each time.
On to `Nc1ccc(-c2nc3ccc(Cc4ccc5nc(-c6ccc(N)cc6)oc5c4)cc3o2)cc1`, for which the TGI in the test on CCRF-CEM leukemia, in the test with MALME-3M melanoma, in the test with SF-295 CNS, in the test on MDA-MB-435, in the test on MDA-MB-231 breast and with PC-3 prostate was over 100 µM in each case. The TGI in the test with DU-145 prostate and in the test with UACC-257 melanoma was over 100 µM each time.
In the case of `CC(OC(C)(C)C)C(NC(=O)C(CCCCNC(=O)OC(C)(C)C)NC(=O)C(Cc1c[nH]c2ccccc12)NC(=O)C(N)Cc1ccccc1)C(=O)NC(Cc1ccccc1)C(=O)N[C@@H]1CCC[C@@H]1C(=O)O` (stereo not given in full) (H-[ξF][ξW][ξK](Boc)[ξT](tBu)[ξF]-X30), the TGI with CCRF-CEM leukemia is 92.4 µM; with MALME-3M melanoma, over 100 µM; in the test with SF-295 CNS it was over 100 µM; in the test on MDA-MB-435 it was over 100 µM; with MDA-MB-231 breast, over 100 µM; in the test on PC-3 prostate it was over 100 µM. Besides, the TGI in the test with DU-145 prostate is over 100 µM; in the test on UACC-257 melanoma, over 100 µM; in the test with HS 578T breast it was 50.6 µM.
With `N#Cc1nc(C2SCCCS2)oc1N`, the TGI in the test on CCRF-CEM leukemia, with MDA-MB-435, in the test on MDA-MB-231 breast, in the test with PC-3 prostate, in the test with DU-145 prostate and in the test with UACC-257 melanoma was over 100 µM in each case. The molecule further returned a TGI with HS 578T breast of over 100 µM.
In the case of `NC(N)=NCCCC(NCc1c2ccccc2[n+]([O-])c2ccccc12)C(=O)O` (stereo not given), the TGI with CCRF-CEM leukemia is 83.3 µM; with MALME-3M melanoma it was over 100 µM; with SF-295 CNS, over 100 µM; in the test with UACC-257 melanoma, over 100 µM.
In the case of `CCOC(=O)NC(C(C(=O)OCC)C(=O)OCC)(C(F)(F)F)C(F)(F)F`, the TGI with CCRF-CEM leukemia, with MALME-3M melanoma, in the test with SF-295 CNS, in the test with MDA-MB-435, with MDA-MB-231 breast and in the test on PC-3 prostate was over 100 µM each time. For the same molecule, the TGI in the test with DU-145 prostate, in the test with UACC-257 melanoma and with HS 578T breast was over 100 µM in each case.
For `COc1cc(/C=C2/C(=O)N=C(NC(C)=O)N2C)ccc1OC(C)=O`, the TGI in the test with SF-295 CNS, in the test with MDA-MB-435, in the test on MDA-MB-231 breast, in the test with PC-3 prostate, with DU-145 prostate and with UACC-257 melanoma was over 100 µM throughout. In the test with BT-549 breast, this molecule registered a TGI of over 100 µM.
Turning to `CC1=C(c2ccc(C)cc2)NC(=S)C(C)C(c2ccc(C)cc2)=N1` (stereo not given), the TGI in the test on CCRF-CEM leukemia, in the test on MALME-3M melanoma, in the test with SF-295 CNS, in the test with MDA-MB-435, in the test on MDA-MB-231 breast and with DU-145 prostate was over 100 µM each time. Also, the TGI in the test on UACC-257 melanoma and in the test on BT-549 breast was over 100 µM throughout.
As to `CN(C)C(=O)C(F)(F)C(c1ccc(C(F)(F)F)cc1)C1C(=O)N(C)C(=O)N(C)C1=O` (stereo not given), the TGI with CCRF-CEM leukemia, in the test with SF-295 CNS, in the test with MDA-MB-435, in the test on MDA-MB-231 breast, with PC-3 prostate and with DU-145 prostate was over 100 µM throughout. The TGI in the test with UACC-257 melanoma and in the test with BT-549 breast was over 100 µM in each case.
As to `O=C1c2cscc2C(=O)c2c(OCc3ccccc3)ccc(OCc3ccccc3)c21`, the TGI in the test on CCRF-CEM leukemia, in the test on MALME-3M melanoma, with SF-295 CNS, in the test with MDA-MB-435, in the test on MDA-MB-231 breast and with PC-3 prostate was over 100 µM throughout. Also, the TGI with DU-145 prostate, in the test on UACC-257 melanoma and with HS 578T breast was over 100 µM each time.
On to `CCCC(=O)[O-].CCCC(=O)[O-].N.N.N.N.[Co+3].[O-][Cl+3]([O-])([O-])[O-]`, for which the TGI in the test with CCRF-CEM leukemia, in the test on MALME-3M melanoma, with SF-295 CNS and with UACC-257 melanoma was over 100 µM each time.
For `N#Cc1nc(NC(=O)c2ccccc2)sc1N`, the TGI in the test with CCRF-CEM leukemia, in the test on MALME-3M melanoma, in the test on SF-295 CNS, in the test on MDA-MB-435, in the test with MDA-MB-231 breast and with PC-3 prostate was over 10 µM each time. The TGI in the test on DU-145 prostate and with UACC-257 melanoma was over 10 µM in each case.
With `CC(=O)[C@]1(C)[C@H](C)O[C@](C)(CO)[C@H]1O[Si](C)(C)c1ccccc1`, the TGI in the test on CCRF-CEM leukemia, in the test with MALME-3M melanoma, in the test on SF-295 CNS, with MDA-MB-435, in the test on MDA-MB-231 breast and in the test with PC-3 prostate was over 100 µM in each case. The TGI with DU-145 prostate, in the test on UACC-257 melanoma and in the test on HS 578T breast was over 100 µM throughout.
As to `CC1C(=O)CC[C@@]2(C)C(=O)CCCC12O` (stereo not given in full), the TGI in the test with MALME-3M melanoma, in the test on SF-295 CNS, in the test with MDA-MB-435, in the test with MDA-MB-231 breast, with PC-3 prostate and with DU-145 prostate was over 100 µM in each case. The TGI with UACC-257 melanoma and in the test with HS 578T breast was over 100 µM each time.
On to `Cc1n(CC(C)C)c2c([n+]1CC(=O)c1ccc([N+](=O)[O-])cc1)C(=O)c1ccccc1C2=O`, for which the TGI with CCRF-CEM leukemia is 4.94 µM; in the test on MALME-3M melanoma, under 0.0205 µM; in the test with SF-295 CNS, 1.51 µM; in the test on UACC-257 melanoma, 0.0293 µM.
`O=C1NCC2(CCNCC2)N1`: the TGI in the test on CCRF-CEM leukemia, in the test with MALME-3M melanoma, in the test with SF-295 CNS, in the test on MDA-MB-435, in the test on MDA-MB-231 breast and in the test with DU-145 prostate was over 100 µM throughout. Also, the TGI in the test on UACC-257 melanoma and in the test with HS 578T breast was over 100 µM throughout.
With `COc1cc(O)c2c(c1O)C(=O)c1cc(C)ncc1C2=O`, the TGI in the test on CCRF-CEM leukemia is over 50 µM; in the test with MALME-3M melanoma, 27.6 µM; in the test on SF-295 CNS, over 50 µM; in the test on UACC-257 melanoma it was 36.6 µM.
On to `OCCN1CCN(c2nc(Nc3ccc(-c4nc5ccccc5[nH]4)cc3)c3cn[nH]c3n2)CC1`, for which the GI50 with SF-295 CNS was 1.88 µM; with MDA-MB-435, 1.82 µM; in the test on PC-3 prostate it was 1.64 µM; in the test on HS 578T breast it was 2.15 µM. In addition, the TGI with SF-295 CNS was 3.31 µM; in the test with MDA-MB-435, 3.29 µM; in the test with PC-3 prostate, 3.13 µM; in the test on HS 578T breast, 5.33 µM.
Turning to `CCC(C)C(NC(=O)c1c2ccccc2nc2ccccc12)C(=O)O` (stereo not given), the TGI in the test with CCRF-CEM leukemia, in the test on MALME-3M melanoma, with SF-295 CNS, in the test on MDA-MB-435, in the test with MDA-MB-231 breast and with PC-3 prostate was over 100 µM each time. The TGI with DU-145 prostate was over 100 µM; in the test with UACC-257 melanoma, over 100 µM; in the test with BT-549 breast it was 94.1 µM.
As for `ClCCCC1COc2ccccc2O1` (stereo not given), the TGI in the test on CCRF-CEM leukemia, with MALME-3M melanoma, in the test on SF-295 CNS, in the test on PC-3 prostate, in the test on DU-145 prostate and in the test with UACC-257 melanoma was over 100 µM throughout. This molecule registered a TGI with BT-549 breast of over 100 µM.
With `COC(=O)C1=C(OC(=O)/C(=C/c2c(F)cccc2F)c2ccccc2)C(C(=O)OC)[C@@]2(O)[C@@H](C(=O)OC)[C@H](C)C[C@@H]1[C@@H]2C(=O)OC` (stereo not given in full), the TGI in the test on CCRF-CEM leukemia, in the test with MALME-3M melanoma, in the test with SF-295 CNS, in the test with MDA-MB-435, in the test with MDA-MB-231 breast and in the test with PC-3 prostate was over 100 µM in each case. In addition, the TGI in the test with DU-145 prostate, with UACC-257 melanoma and in the test on BT-549 breast was over 100 µM each time.
In the case of `CCCCCCCSCC1OC(n2cnc3c(N)ncnc32)C(O)C1O` (stereo not given), the TGI is over 100 µM in the test with CCRF-CEM leukemia, over 100 µM in the test with MALME-3M melanoma, over 100 µM in the test on SF-295 CNS and 56.9 µM in the test with UACC-257 melanoma.
On to `C=CCCCCn1c2ccccc2c2c(C)c3c[n+](C)ccc3c(C)c21`, for which the TGI was determined as 2.02 µM in the test with CCRF-CEM leukemia, 1.16 µM with MALME-3M melanoma, 2.6 µM in the test on SF-295 CNS and 1.47 µM with UACC-257 melanoma.
As to `CN(C)C=Nc1c(Br)cc(Br)c2nonc12`, the TGI in the test with CCRF-CEM leukemia, in the test on MALME-3M melanoma, with SF-295 CNS, with MDA-MB-435, in the test with MDA-MB-231 breast and in the test on PC-3 prostate was over 100 µM throughout. The TGI in the test on DU-145 prostate, in the test with UACC-257 melanoma and in the test on HS 578T breast was over 100 µM throughout.
In the case of `Oc1c2c(c3c4c1N=CC=4CCN=3)C1(C=C(Br)C(O)C(Br)=C1)CCN2` (stereo not given), the TGI in the test with CCRF-CEM leukemia turned out to be 5.79 µM; with SF-295 CNS, 7.74 µM; in the test with UACC-257 melanoma, 1.27 µM.
